Test results taken from patent US20220008425A1, “Pharmaceutical Composition for Treating B-Cell Lymphoma” (FUNDAN UNIVERSITY SHANGHAI CANER CENTER, priority 2018, published 2022).
“Also recorded” adds a separate entry of the source.

Key:
NU-DUL-1-RCHO cells [1] = settings: 48 hours
Method: Further, we constructed LY8 and NU-DUL-1 cells resistant to chemotherapeutic drugs. Briefly, LY8-ORI and NU-DUL-1-ORI cells were treated with doxorubicin (Selleck Chemicals, Houston, Tex.) and vincristine (Selleck Chemicals, Houston, Tex.) at a clinical ratio of 50:1.4 by increasing the concentration. […] These cells were then treated with 2 μg/mL of 4-hydroperoxycyclophosphamide (4-HC) (Santa Cruz Biotechnology, Inc., Santa Cruz, Calif.) every 21 days for 3 cycles. The obtained CHO-resistant cells are referred to as LY8-CHO and NU-DUL-1-CHO, respectively. CHO-resistant cells were treated with doxorubicin, vincristine, and 4-HC every 22 days to maintain drug tolerance to CHO. […] To maintain RCHO resistance, LY8-RCHO cells and NU-DUL-1-RCHO cells were treated with 32 μg/mL of rituximab containing 20% (v/v) of NHS every 22 days, followed by treatment with doxorubicin, vincristine, and 4-HC. After 48 hours of treatment with doxorubicin, vincristine and 4-HC, drug resistance to CHO and RCHO was determined by a series of CCK-8 assays.
Cells were seeded in a 96-well plate at a density of 1×10^4/100 μL/well. Cells were pretreated with IPI-145, abemaciclib, AZD4547, PF-573228, R788, or saracatinib at increasing concentrations with or without CHO for 48 hours prior to performing CytoTox-Glo™ cytotoxicity assay. We performed cytotoxicity assay by using a CytoTox-Glo™ cytotoxicity assay kit (Promega Inc., Madison, Wis.) according to their instructions. Briefly, 50 μL of CytoTox-Glo™ cytotoxicity assay reagent was added to all wells, mixed by orbital shaking, and then incubated for 15 minutes at room temperature. Luminescence of experimental dead cells was detected with a Synergy HT microplate reader (BioTek, Biotek Winooski, Minn.), wherein 50 μL of lysate was added to all wells, mixed and incubated for 15 minutes at room temperature prior to detection of total luminescence. Cytotoxicity was calculated according to the following formula: Cytotoxicity (%)=Experimental dead cell luminescence/Total luminescence×100%.

NU-DUL-1-RCHO-Luc cells = assay: Transplantation model, bioluminescence tumor growth and survival; type: in vivo; settings: SCID mice bearing NU-DUL-1-RCHO-Luc cells
From the text: Construction of a transplantation model: we transduced LY8-RCHO cells and NU-DUL-1-RCHO cells with lentiviruses overexpressing the firefly luciferase gene to generate stable cells expressing firefly luciferase, referred to as LY8-RCHO-Luc cells and NU-DUL-1-RCHO-Luc cells, respectively. 8-week-old female SCID mice were purchased from SLAC (Shanghai laboratory animal center). The LY8-RCHO-Luc cells and NU-DUL-1-RCHO-Luc cells were resuspended in PBS prior to intraperitoneal injection of 1.5×10^7 cells per mouse. After intraperitoneal injection of the LY8-RCHO-Luc cells, mice were randomized into 6 groups (7 mice in every group) and given saline, R-CHOP, duvelisib, abemaciclib, R-CHOP+duvelisib, and R-CHOP+abemaciclib, respectively. Mice inoculated with the NU-DUL-1-RCHO-Luc cells were randomly divided into 6 groups (7 mice in every group), and were given saline, R-CHOP, duvelisib, AZD4547, R-CHOP+duvelisib, and R-CHOP+AZD4547, respectively. The drug dosing method based on one course of clinical use is shown in Table 1; the R-CHOP regimen was clinically used to treat DLBCL, while duvelisib, abemaciclib, and AZD4547 were tested in clinical trials (associated NCT numbers are NCT02576275, NCT01739309, and […], respectively). Tumor growth was monitored by bioluminescence at day 50 and day 90 after inoculation. For in vivo luminescence imaging, D-luciferin (Promega, Madison, Wis.) was intraperitoneally injected into mice (150 mg/kg). After 10 minutes, the mice were anesthetized by intraperitoneal injection of pentobarbital (50 mg/kg) and then their bioluminescence intensity was examined by using an In Vivo MS FX PRO system (Bruker Corporation, Billerica, Mass.). Luminescence images were captured with an exposure time of 30 seconds and the signal intensity of the tumor was measured by using Bruker MI software. The survival time of each mouse was recorded. Surviving mice were euthanized and dissected 120 days after inoculation and no intraperitoneal tumors were found. Tumor tissue was collected from moribund mice and fixed with 4% formalin. All animal experiments were performed in strict accordance with the experiment protocol approved by the animal ethics committee of Shanghai school of medicine of Fudan university.

NU-DUL-1-RCHO cells [2] = assay: EdU cell proliferation assay; type: cell-based, human; settings: 1 μM, time point (48 or 120 hours) not given
Method: RCHO-resistant DLBCL cells were pretreated with duvelisib, abemaciclib, or AZD4547 at a concentration of 1 μM for 48 or 120 hours prior to EdU assay. For 120 hours of the study, the medium was replaced with a fresh medium containing 1 μM of inhibitor at 48 hours. EdU cell proliferation assay was performed by using a cell-light EdU Apollo643 in vitro flow cytometry kit (RiboBio Inc., Guangzhou, China) according to its instructions. Next, we assayed EdU staining positive cells on a Cytomics FC500 MPL flow cytometer (Beckman Coulter, Brea, Calif.).

NU-DUL-1-RCHO cells [3] = assay: Aldefluor analysis (ALDH1+ cells); type: cell-based, human
Method: ALDH1 is a selectable marker for a variety of normal and cancer stem cells, including hematopoietic stem cells. Therefore, we assessed the number of cancer stem cells in hematopoietic malignancies by detecting ALDH1 positive cells. As previously described, we used an ALDEFLUOR™ kit (StemCell Technologies, Vancouver, BC, CA) to detect populations with high ALDH1 activity. Briefly, 1×10^6 cells were suspended in 1 mL of assay buffer containing 1 μM of BAAA, a substrate of […]. Suspended cells were then equally divided into two samples, one as a negative control and the other as a test sample. To form the negative control, […] of DEAB, a specific ALDH inhibitor, was added to one equally-divided sample. Cells were then incubated at 37° C. for 30 minutes prior to flow cytometry analysis.

[4] = system: AKT phosphorylation, SOX2, FGFR1/2 and CSC-associated molecules in NU-DUL-1-RCHO cells; assay: Immunoblot analysis; type: cell-based, human
[5] = system: SOX2 in tumor tissues grown from NU-DUL-1-RCHO-Luc cells; assay: SOX2 immunohistochemical staining of tumor tissues from the transplantation model; type: in vivo, SCID mice; settings: tumors from NU-DUL-1-RCHO-Luc cells; compared with saline control
From the text: Construction of a transplantation model: we transduced LY8-RCHO cells and NU-DUL-1-RCHO cells with lentiviruses overexpressing the firefly luciferase gene to generate stable cells expressing firefly luciferase, referred to as LY8-RCHO-Luc cells and NU-DUL-1-RCHO-Luc cells, respectively. 8-week-old female SCID mice were purchased from SLAC (Shanghai laboratory animal center). The LY8-RCHO-Luc cells and NU-DUL-1-RCHO-Luc cells were resuspended in PBS prior to intraperitoneal injection of 1.5×10^7 cells per mouse. After intraperitoneal injection of the LY8-RCHO-Luc cells, mice were randomized into 6 groups (7 mice in every group) and given saline, R-CHOP, duvelisib, abemaciclib, R-CHOP+duvelisib, and R-CHOP+abemaciclib, respectively. Mice inoculated with the NU-DUL-1-RCHO-Luc cells were randomly divided into 6 groups (7 mice in every group), and were given saline, R-CHOP, duvelisib, AZD4547, R-CHOP+duvelisib, and R-CHOP+AZD4547, respectively. […] Tumor growth was monitored by bioluminescence at day 50 and day 90 after inoculation. For in vivo luminescence imaging, D-luciferin (Promega, Madison, Wis.) was intraperitoneally injected into mice (150 mg/kg). […] Luminescence images were captured with an exposure time of 30 seconds and the signal intensity of the tumor was measured by using Bruker MI software. The survival time of each mouse was recorded. […]
Tumor tissues from patients or animal models were fixed with 4% formalin, embedded in paraffin and sectioned. […] Immunoreactivity was then detected by using a GTVision III immunohistochemical detection kit (GK500705; Gene Tech Inc., Shanghai, China) according to its instructions. Quantitative scoring of immunostaining for SOX2, p-AKT, CDK6, FGFR1 and FGFR2 was performed on three independent sections under the microscope, according to the formula: score=3 (strong positive)×percentage+2 (medium positive)×percentage+1 (weak positive)×percentage+0 (negative)×percentage.

NU-DUL-1-RCHO cells [6] = assay: CDC assay (rituximab-mediated complement-dependent cytotoxicity); type: cell-based, human; settings: pre-treated with inhibitor 24 hours, then rituximab and 20% NHS 2 hours
Method: We constructed LY8 cells and NU-DUL-1 cells that are resistant to rituximab-mediated complement-dependent cytotoxicity (CDC). Briefly, original LY8 (LY8-ORI) cells and original NU-DUL-1 (NU-DUL-1-ORI) cells were treated with rituximab containing 20% (v/v) of NHS (Roche, Basel, Switzerland) with a concentration of gradually increasing from 4 μg/mL to 32 μg/mL to construct drug-resistant cells. […] Cytolysis induced by CDC was evaluated by detection of positive cells stained with propidium iodide (PI) through fluorescence activated cell sorting (FACS).

[7] = system: acute promyelocytic leukemia (APL); settings: APL patients; ATRA alone; cited from earlier work

Compound	cytotoxicity (induction of cell death), inhibitor used alone (NU-DUL-1-RCHO cells [1]; inhibitor alone at increasing concentrations)	reversal of resistance to CHO (cytotoxicity of CHO), inhibitor co-treated with CHO (NU-DUL-1-RCHO cells [1]; inhibitor at increasing concentrations with CHO)	tumor growth (total photon flux) (NU-DUL-1-RCHO-Luc cells; inhibitor combined with R-CHOP, dosing per Table 1)	survival time (NU-DUL-1-RCHO-Luc cells; inhibitor combined with R-CHOP, experiment ended at day 120)	survival time (NU-DUL-1-RCHO-Luc cells; regimen or inhibitor used alone, dosing per Table 1)	cell proliferation (EdU incorporation) (NU-DUL-1-RCHO cells [2])	proportion of ALDH1+ cells (CSCs) (NU-DUL-1-RCHO cells [3])	levels of CSC-associated molecules (OCT4, NANOG, KLF4, c-MYC, CD34, CD133) [4]	SOX2 expression level in tumor tissue (IHC) [5]	effect on resistance to R-mediated CDC (NU-DUL-1-RCHO cells [6])	complete remission rate [7]
COc1cc(CCc2cc(NC(=O)c3ccc(N4C[C@@H](C)N[C@@H](C)C4)cc3)n[nH]2)cc(OC)c1 [AZD4547]	negligible effect on induction of cell death; also recorded: only negligible cytotoxicity on drug-resistant cells	restored sensitivity of RCHO-resistant cells to CHO; also recorded: significantly enhanced cytotoxicity of CHO	completely inhibit tumor growth	prolong the survival time to the end of the experiment at day 120	significantly prolonged the survival time	promoted proliferation of NU-DUL-1-RCHO cells due to involvement in inhibition of PI3K/AKT signaling, but to a lesser extent than PI3K inhibition	significantly reduced ALDH1+ subpopulations in NU-DUL-1-RCHO cells, but to a greatly reduced extent compared with duvelisib	also reduced their levels but to a greatly reduced extent compared with duvelisib	significantly reduced the expression levels of SOX2 compared with a saline control	exacerbates resistance to R-mediated CDC	–
CC1=C(/C=C/C(C)=C/C=C/C(C)=C/C(=O)O)C(C)(C)CCC1 [ATRA, all-trans retinoic acid]	–	–	–	–	–	–	–	–	–	–	about 85%
